From ChEMBL document CHEMBL1135381, “Synthesis and structure-activity relationship of 2-(aminoalkyl)-2,3,3a,8-tetrahydrodibenzo[c,f]isoxazolo[2,3-a]azepine derivatives: a novel series of 5-HT(2A/2C) receptor antagonists. Part 2” (Bioorg Med Chem Lett, 2002) come the findings set out here.

For one assay, the system named is Rattus norvegicus. As to the kind of experiment: In vivo activity in mCPP challenge test were performed in male Wistar rats by subcutaneous administration. In kind it is functional. Conditions: sc.
The target in assay [1] is T1, 5-hydroxytryptamine receptor 2C (Homo sapiens, UniProt P28335).
T1 sequence (P28335 whole entry): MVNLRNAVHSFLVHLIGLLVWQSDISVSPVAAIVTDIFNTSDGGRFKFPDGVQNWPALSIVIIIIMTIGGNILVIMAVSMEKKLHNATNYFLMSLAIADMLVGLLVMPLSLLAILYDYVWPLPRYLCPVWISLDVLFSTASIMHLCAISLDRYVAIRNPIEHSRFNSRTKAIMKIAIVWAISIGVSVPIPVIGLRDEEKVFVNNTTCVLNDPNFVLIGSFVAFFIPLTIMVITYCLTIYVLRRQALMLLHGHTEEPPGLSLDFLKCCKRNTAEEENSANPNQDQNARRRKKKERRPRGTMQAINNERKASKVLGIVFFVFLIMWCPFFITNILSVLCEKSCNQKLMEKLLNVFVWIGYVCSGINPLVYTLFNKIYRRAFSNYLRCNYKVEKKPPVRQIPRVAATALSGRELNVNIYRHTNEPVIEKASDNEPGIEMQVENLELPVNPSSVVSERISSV
As to the kind of experiment: Binding affinity at human cloned 5-hydroxytryptamine 2C receptor expressed in CHO cells by [3H]mesulergine displacement. In kind it is cell-based.

Assay [2] addresses 5-hydroxytryptamine receptor 2A (Homo sapiens, UniProt P28223). Description: Binding affinity at human cloned 5-hydroxytryptamine 2A receptor expressed in L929 cells by [125I]R91150 displacement. The assay is classed as cell-based.
The next assay addresses Histamine H1 receptor (Homo sapiens, UniProt P35367). Description: Binding affinity at human cloned Histamine H1 receptor expressed in CHO cells by [3H]pyrilamine displacement. The assay is classed as cell-based.
The target in assay [3] is T2, 5-hydroxytryptamine receptor 2C (Rattus norvegicus) (UniProt P08909).
T2 sequence (whole entry): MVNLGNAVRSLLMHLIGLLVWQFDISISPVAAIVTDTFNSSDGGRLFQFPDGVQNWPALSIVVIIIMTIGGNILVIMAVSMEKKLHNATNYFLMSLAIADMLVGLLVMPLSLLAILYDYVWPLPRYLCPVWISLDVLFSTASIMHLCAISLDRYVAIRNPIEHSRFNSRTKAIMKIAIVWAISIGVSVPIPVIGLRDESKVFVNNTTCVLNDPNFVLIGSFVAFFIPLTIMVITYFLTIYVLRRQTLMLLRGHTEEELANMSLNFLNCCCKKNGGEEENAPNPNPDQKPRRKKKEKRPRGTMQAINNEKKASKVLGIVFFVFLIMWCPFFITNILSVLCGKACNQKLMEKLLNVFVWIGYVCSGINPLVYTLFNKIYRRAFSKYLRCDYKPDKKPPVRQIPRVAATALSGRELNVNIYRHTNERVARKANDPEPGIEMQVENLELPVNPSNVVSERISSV
As to the kind of experiment: In vivo activity in rat mCPP challenge test following p.o. administration. The assay is classed as functional, organism-based.

The target of assay [4] is Serotonin 3 (5-HT3) receptor. As to the kind of experiment: Binding affinity for human cloned 5-hydroxytryptamine 3 receptor. The assay is classed as protein-complex assay.
Another assay has as its target D(2) dopamine receptor (Rattus norvegicus, UniProt P61169). As to the kind of experiment: Binding affinity for rat Dopamine receptor D2.
Assay [5] deals with T3, 5-hydroxytryptamine receptor 1A (Homo sapiens, UniProt P08908).
T3 sequence (P08908 whole entry): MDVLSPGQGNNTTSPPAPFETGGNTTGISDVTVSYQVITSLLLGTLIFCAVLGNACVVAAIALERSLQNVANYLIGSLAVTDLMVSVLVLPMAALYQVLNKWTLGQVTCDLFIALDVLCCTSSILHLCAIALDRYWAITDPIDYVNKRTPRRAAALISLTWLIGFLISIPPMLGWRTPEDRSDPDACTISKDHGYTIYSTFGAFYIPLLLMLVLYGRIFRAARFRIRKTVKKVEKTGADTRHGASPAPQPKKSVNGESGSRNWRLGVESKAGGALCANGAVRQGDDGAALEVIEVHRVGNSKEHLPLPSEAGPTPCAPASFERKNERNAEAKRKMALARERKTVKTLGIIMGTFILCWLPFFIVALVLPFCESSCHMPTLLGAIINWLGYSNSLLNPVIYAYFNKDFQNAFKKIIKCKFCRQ
Description: Binding affinity for human cloned 5-hydroxytryptamine 1A receptor.

Assay [6] addresses T4, Alpha-2A adrenergic receptor (Homo sapiens, UniProt P08913).
T4 sequence (P08913 whole entry): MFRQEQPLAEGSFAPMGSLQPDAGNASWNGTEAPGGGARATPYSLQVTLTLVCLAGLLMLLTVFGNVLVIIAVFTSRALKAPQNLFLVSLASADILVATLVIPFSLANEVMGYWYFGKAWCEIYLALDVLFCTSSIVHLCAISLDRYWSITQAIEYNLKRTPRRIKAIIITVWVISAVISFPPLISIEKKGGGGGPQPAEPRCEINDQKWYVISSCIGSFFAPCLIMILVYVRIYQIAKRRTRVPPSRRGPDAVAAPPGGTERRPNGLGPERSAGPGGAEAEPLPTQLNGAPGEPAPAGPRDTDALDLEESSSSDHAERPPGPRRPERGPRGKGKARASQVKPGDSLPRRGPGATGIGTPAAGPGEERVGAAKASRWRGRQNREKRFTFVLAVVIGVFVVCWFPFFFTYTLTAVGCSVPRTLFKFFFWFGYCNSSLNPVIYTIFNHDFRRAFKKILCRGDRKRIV
As to the kind of experiment: Binding affinity for human cloned Alpha-2A adrenergic receptor.

For another assay, the target named is D(3) dopamine receptor (Homo sapiens, UniProt P35462). As to the kind of experiment: Binding affinity for human cloned Dopamine receptor D3.
Sequence of D(3) dopamine receptor (P35462 whole entry): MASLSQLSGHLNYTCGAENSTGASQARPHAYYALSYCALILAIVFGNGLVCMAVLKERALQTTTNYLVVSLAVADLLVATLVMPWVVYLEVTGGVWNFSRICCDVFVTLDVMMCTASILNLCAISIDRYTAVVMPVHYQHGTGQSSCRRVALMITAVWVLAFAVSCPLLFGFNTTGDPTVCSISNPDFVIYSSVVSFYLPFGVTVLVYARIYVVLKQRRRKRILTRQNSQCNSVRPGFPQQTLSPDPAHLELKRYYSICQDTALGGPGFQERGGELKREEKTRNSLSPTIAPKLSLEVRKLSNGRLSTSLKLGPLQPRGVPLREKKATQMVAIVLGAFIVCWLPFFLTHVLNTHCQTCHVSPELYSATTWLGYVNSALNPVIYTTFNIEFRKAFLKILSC
For assay [7], the target named is 5-hydroxytryptamine receptor 1D (Homo sapiens, UniProt P28221). Description: Binding affinity for human cloned 5-hydroxytryptamine 1D receptor.
Sequence of 5-hydroxytryptamine receptor 1D (P28221 whole entry): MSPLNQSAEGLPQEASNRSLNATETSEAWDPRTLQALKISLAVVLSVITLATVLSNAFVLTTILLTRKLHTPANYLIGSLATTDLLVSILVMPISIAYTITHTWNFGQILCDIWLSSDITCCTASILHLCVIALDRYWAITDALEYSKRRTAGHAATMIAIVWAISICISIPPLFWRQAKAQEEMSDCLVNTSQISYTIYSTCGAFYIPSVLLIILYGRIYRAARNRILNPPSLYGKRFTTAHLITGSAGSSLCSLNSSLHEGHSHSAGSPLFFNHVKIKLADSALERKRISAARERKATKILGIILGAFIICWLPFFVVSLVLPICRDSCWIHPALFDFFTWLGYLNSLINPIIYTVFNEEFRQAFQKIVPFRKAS
Assay [8] addresses T5, Alpha-2C adrenergic receptor (Homo sapiens, UniProt P18825).
T5 sequence (P18825 whole entry): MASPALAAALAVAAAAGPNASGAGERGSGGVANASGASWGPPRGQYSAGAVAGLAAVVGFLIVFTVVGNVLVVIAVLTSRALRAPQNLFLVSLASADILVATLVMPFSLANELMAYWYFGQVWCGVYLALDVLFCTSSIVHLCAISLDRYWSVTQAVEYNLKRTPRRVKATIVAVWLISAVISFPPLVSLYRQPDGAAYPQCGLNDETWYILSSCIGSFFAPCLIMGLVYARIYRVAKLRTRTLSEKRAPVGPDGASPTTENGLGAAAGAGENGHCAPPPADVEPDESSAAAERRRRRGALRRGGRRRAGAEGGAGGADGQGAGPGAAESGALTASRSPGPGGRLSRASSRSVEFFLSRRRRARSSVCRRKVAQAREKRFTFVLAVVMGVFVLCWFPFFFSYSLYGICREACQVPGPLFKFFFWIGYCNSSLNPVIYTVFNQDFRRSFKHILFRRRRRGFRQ
Description: Binding affinity for human cloned Alpha-2C adrenergic receptor.

Another assay addresses T6, D(4) dopamine receptor (Homo sapiens, UniProt P21917).
T6 sequence (P21917 whole entry): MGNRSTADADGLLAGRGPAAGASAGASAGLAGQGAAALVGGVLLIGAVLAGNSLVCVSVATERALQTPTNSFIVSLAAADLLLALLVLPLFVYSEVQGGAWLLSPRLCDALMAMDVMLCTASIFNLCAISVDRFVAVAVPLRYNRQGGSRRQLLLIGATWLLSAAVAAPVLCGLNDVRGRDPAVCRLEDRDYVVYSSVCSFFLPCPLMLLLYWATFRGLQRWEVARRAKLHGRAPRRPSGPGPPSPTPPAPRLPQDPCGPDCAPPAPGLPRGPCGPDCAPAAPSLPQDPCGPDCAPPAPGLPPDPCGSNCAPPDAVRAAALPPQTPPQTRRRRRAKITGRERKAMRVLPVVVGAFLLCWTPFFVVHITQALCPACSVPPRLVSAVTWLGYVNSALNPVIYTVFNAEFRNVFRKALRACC
Description: Binding affinity for human cloned Dopamine receptor D4.

By ED50 is commonly meant the dose that gives a 50% effect, or the effect in half of the subjects. Low readings indicate an effect at a small dose, high ones a need for a large dose. What is called IC50 is the midpoint of a concentration-inhibition curve. A higher IC50 goes with lower potency. Broadly, the pIC50 is −log10 of the IC50, conventionally taken in molar units.

Sequence of Histamine H1 receptor (P35367 whole entry): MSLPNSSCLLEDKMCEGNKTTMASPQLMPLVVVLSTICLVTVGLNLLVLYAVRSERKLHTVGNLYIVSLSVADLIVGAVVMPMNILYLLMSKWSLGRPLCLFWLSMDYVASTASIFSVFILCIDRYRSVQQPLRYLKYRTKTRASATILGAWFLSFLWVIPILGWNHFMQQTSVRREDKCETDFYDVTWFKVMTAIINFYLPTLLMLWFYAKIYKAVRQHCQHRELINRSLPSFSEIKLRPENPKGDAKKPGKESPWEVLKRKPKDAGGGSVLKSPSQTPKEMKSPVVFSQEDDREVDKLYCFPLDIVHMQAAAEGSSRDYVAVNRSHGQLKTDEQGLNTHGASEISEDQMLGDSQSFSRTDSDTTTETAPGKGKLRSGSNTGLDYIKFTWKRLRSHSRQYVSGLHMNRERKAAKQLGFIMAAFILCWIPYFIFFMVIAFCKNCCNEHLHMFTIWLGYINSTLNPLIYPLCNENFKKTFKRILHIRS
Sequence of 5-hydroxytryptamine receptor 2A (P28223 whole entry): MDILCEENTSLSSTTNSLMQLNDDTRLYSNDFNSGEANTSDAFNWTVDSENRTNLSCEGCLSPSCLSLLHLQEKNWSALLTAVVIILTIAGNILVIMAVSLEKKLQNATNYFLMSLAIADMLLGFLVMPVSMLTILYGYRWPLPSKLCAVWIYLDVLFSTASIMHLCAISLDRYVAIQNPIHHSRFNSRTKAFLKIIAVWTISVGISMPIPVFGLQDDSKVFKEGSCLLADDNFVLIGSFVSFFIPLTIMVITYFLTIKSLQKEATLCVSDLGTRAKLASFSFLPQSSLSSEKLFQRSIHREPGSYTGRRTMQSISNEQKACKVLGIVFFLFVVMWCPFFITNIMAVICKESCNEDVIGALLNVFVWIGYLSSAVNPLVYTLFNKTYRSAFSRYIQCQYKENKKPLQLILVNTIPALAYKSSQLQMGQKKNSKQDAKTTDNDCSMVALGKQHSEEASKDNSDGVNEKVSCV
Sequence of D(2) dopamine receptor (P61169 whole entry): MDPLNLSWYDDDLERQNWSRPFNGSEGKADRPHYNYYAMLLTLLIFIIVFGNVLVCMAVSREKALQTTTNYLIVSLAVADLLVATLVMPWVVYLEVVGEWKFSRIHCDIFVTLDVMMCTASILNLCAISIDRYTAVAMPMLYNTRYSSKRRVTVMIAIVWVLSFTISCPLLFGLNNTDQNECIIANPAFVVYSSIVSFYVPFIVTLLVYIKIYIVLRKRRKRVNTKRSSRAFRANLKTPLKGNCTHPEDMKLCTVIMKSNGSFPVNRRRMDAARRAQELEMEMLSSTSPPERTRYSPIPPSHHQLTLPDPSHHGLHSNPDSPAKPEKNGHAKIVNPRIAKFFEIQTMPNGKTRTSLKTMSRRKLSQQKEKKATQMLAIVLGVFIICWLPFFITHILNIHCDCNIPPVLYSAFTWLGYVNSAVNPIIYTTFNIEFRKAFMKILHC

Consider `CN(C)CC1CC2c3c(F)cccc3Cc3ccccc3N2O1` (configuration not stated), for which the ED50 in the assay with Rattus norvegicus is greater than 2.5 mg/kg. Further, the IC50 (in assay [1]; in assay [2]; at Histamine H1 receptor) was greater than 1000 nM each time.
`CN(C)CC1CC2c3cccc(C(F)(F)F)c3Cc3ccccc3N2O1` (configuration not stated): the ED50 in assay [3] is greater than 2.5 mg/kg.
For `CN(C)CC1CC2c3ccccc3Cc3ccc(Cl)cc3N2O1` (configuration not stated), the ED50 in the assay with Rattus norvegicus stood at 0.16 mg/kg; in assay [3] it was 0.63 mg/kg. In [4], this compound yielded a pIC50 of 6.32.
The compound `CN(C)CC1CC2c3ccccc3Cc3cc(F)ccc3N2O1` (configuration not stated) had a median effective dose (ED50) in assay [3] of 2.5 mg/kg.
Consider `CN(C)CC1CC2c3cc(F)ccc3Cc3ccccc3N2O1` (configuration not stated), for which the ED50 (in the assay with Rattus norvegicus; in [3]) was greater than 2.5 mg/kg throughout.
As for `CN(C)CC1CC2c3cccc(F)c3Cc3ccccc3N2O1` (configuration not stated), the 50% effective dose (ED50) (with Rattus norvegicus; in [3]) was 2.5 mg/kg in each case. The IC50 in assay [2] is 31.6 nM.
Compound `CN(C)CC1CC2c3ccc(Cl)cc3Cc3ccccc3N2O1` (configuration not stated) came in with an ED50 in the assay on Rattus norvegicus greater than 2.5 mg/kg.
`CN(C)CC1CC2c3ccccc3Cc3ccccc3N2O1` (configuration not stated): the ED50 is 0.04 mg/kg in the assay on Rattus norvegicus and 0.63 mg/kg in [3].
Regarding `Cc1cccc2c1C1CC(CN(C)C)ON1c1ccccc1C2` (configuration not stated), in [3], the 50% effective dose (ED50) was greater than 2.5 mg/kg.
With `CN(C)CC1CC2c3ccccc3Cc3ccc(-c4ccccc4)cc3N2O1` (configuration not stated), the ED50 (in the assay on Rattus norvegicus; in assay [3]) was greater than 2.5 mg/kg each time.
For the compound `Cc1cccc2c1Cc1ccccc1C1CC(CN(C)C)ON21` (configuration not stated), the median effective dose (ED50) in assay [3] is greater than 2.5 mg/kg.
On the same count and under the same terms, as for `COc1ccc2c(c1)C1CC(CN(C)C)ON1c1ccccc1C2` (configuration not stated), the figure is greater than 2.5 mg/kg.
Consider `CN(C)CC1CC2c3cccc(Cl)c3Cc3ccccc3N2O1` (configuration not stated), for which the ED50 in assay [3] was greater than 2.5 mg/kg. In addition, the IC50 (in assay [1]; in assay [2]; on Histamine H1 receptor) was greater than 1000 nM throughout.
With `CN(C)CC1CC2c3ccccc3Cc3cccc(Cl)c3N2O1` (configuration not stated), in [3], the ED50 is greater than 2.5 mg/kg.
Take `CN(C)CC1CC2c3c(cccc3C(F)(F)F)Cc3ccccc3N2O1` (configuration not stated): the ED50 in the assay with Rattus norvegicus is 2.5 mg/kg; in [3] it was greater than 2.5 mg/kg.
For the compound `Cc1ccc2c(c1)N1OC(CN(C)C)CC1c1ccccc1C2` (configuration not stated), the IC50 (on D(2) dopamine receptor; in assay [5]; in assay [6]; on D(3) dopamine receptor; in assay [7]; in assay [8]) was greater than 1000 nM in each case. Moreover, the IC50 at D(4) dopamine receptor was greater than 1000 nM. Further, the values for the ED50 (with Rattus norvegicus; in [3]) were 0.16 mg/kg and 2.5 mg/kg, respectively. The same compound yielded a pIC50 in [4] of less than 6.
In turn, `CN(C)CC1CC2c3ccccc3Cc3c(F)cccc3N2O1` (configuration not stated) showed an ED50 in [3] of 2.5 mg/kg.
In turn, `Cc1ccc2c(c1)Cc1ccccc1N1OC(CN(C)C)CC21` (configuration not stated) gave an ED50 in assay [3] of 2.5 mg/kg. In addition, the IC50 in assay [2] is 10.5 nM.
In the case of `CN(C)CC1CC2c3ccccc3Cc3ccc(Br)cc3N2O1` (configuration not stated), in assay [3], the ED50 came out at 2.5 mg/kg.
Consider `CN(C)CC1CC2c3cc(C(F)(F)F)ccc3Cc3ccccc3N2O1` (configuration not stated), for which the values for the ED50 (in the assay on Rattus norvegicus; in assay [3]) were 2.5 mg/kg and greater than 2.5 mg/kg, respectively. Besides, the IC50 (in [1]; in assay [2]; on Histamine H1 receptor) was greater than 1000 nM throughout.
Take `CN(C)CC1CC2c3ccccc3Cc3ccc(F)cc3N2O1` (configuration not stated): the IC50 on D(2) dopamine receptor is greater than 1000 nM; in [2], 1.15 nM. In assay [3], this compound gave a 50% effective dose (ED50) of 2.5 mg/kg. Also, the pIC50 in [4] was less than 6.
For `CN(C)CC1CC2c3cc(F)ccc3Cc3ccc(F)cc3N2O1` (configuration not stated), the IC50 was greater than 1000 nM in assay [5]; greater than 1000 nM in assay [6]; greater than 1000 nM on D(3) dopamine receptor; 10.7 nM in assay [2]; greater than 1000 nM in [7]; greater than 1000 nM in assay [8]. The same compound gave an IC50 on D(4) dopamine receptor greater than 1000 nM. The ED50 in the assay on Rattus norvegicus was 0.04 mg/kg; in assay [3], 0.63 mg/kg. Also, the pIC50 in assay [4] is listed as less than 6.
